# Several values for one entry are separate records, joined by “and”; a condition that tells them apart may be missing. Identical values can stand only once.
# Tests used:
# [1] = Drug substance properties; assay type: physicochemical; conditions: 10 mg/ml aqueous solution
# Procedure: Cyanocobalamin (CN-Cbl) is a cobalt containing vitamin and is reported to be sparingly soluble in water in the order of 1:80 or ˜12.5 mg/ml (Merck Index 1996). […] The material appears as dark red crystals or as an amorphous or crystalline red powder. It has a melting point of 300° C. and a molecular weight of 1355.38. The pH of a 10 mg/ml aqueous solution is 5.02.
# [2] = Solubility study (saturated solubility of CN-Cbl, 25°C, 16 hours, UV); assay type: physicochemical
# Description: During the solubility study the following were investigated: • cosolvents (mixtures of ethanol and propylene glycol) • in-situ salt formers • surfactants • pH effects • in-situ salt formers and cosolvents Solubility Study Method
# Results of CN-Cbl Solubility in Water and Determination of Equilibrium Time
# [3] = Ref. FD4068 29A, buffer Sodium citrate, citric acid, Initial pH 2.64
# [4] = Ref. FD4068 30A, buffer Sodium citrate, citric acid, Initial pH 4.75
# [5] = Ref. FD4068 30B, buffer Disodium hydrogen phosphate, sodium dihydrogen phosphate, Initial pH 7.03
# [6] = Ref. FD4068 31A, buffer Diethanolamine, hydrochloric acid, Initial pH 8.93
substance,measurement,setting,value
cyanocobalamin [CN-Cbl],pH of aqueous solution,[1],5.02
same,Saturated Solubility,"[2]; 0.1 M Choline (12.12 mg/ml), Initial pH 12.54",29.5 mg/mL
same,Saturated Solubility,"[2]; 0.1 M Diethanolamine (10.51 mg/ml), Initial pH 10.80",18.1 mg/mL
same,Saturated Solubility,"[2]; 0.1 M L-arginine (17.42 mg/ml), Initial pH 10.88",18.2 mg/mL
same,Saturated Solubility,"[2]; 0.1 M L-lysine (16.42 mg/ml), Initial pH 9.60",16.3 mg/mL
same,Saturated Solubility,"[2]; 0.1 M Meglumine (19.52 mg/ml), Initial pH 11.00",18.0 mg/mL
same,Saturated Solubility,"[2]; 0.1 M Triethanolamine (14.92 mg/ml), Initial pH 10.13",18.6 mg/mL
same,Saturated Solubility,"[2]; 0.1 M Triethylamine (10.12 mg/ml), Initial pH 11.64",24.9 mg/mL
same,Saturated Solubility,"[2]; Ref. FD4068 14A, Propylene glycol 30% v/v, Ethanol 5% v/v",36.6 mg/mL
same,Saturated Solubility,"[2]; Ref. FD4068 15A, Propylene glycol 32% v/v, Ethanol 5% v/v",39.8 mg/mL
same,Saturated Solubility,"[2]; Ref. FD4068 15B, Propylene glycol 34% v/v, Ethanol 5% v/v",39.1 mg/mL
same,Saturated Solubility,"[2]; Ref. FD4068 15C, Propylene glycol 36% v/v, Ethanol 5% v/v",41.8 mg/mL
same,Saturated Solubility,"[2]; Ref. FD4068 16A, Propylene glycol 38% v/v, Ethanol 5% v/v",45.5 mg/mL
same,Saturated Solubility,"[2]; Ref. FD4068 16B, Propylene glycol 40% v/v, Ethanol 5% v/v",48.1 mg/mL
same,Saturated Solubility,"[2]; Ref. FD4068 16C, Propylene glycol 30% v/v, Ethanol 10% v/v",45.6 mg/mL
same,Saturated Solubility,"[2]; Ref. FD4068 16D, Propylene glycol 32% v/v, Ethanol 10% v/v",45.8 mg/mL
same,Saturated Solubility,"[2]; Ref. FD4068 17A, Propylene glycol 34% v/v, Ethanol 10% v/v",47.8 mg/mL
same,Saturated Solubility,"[2]; Ref. FD4068 17B, Propylene glycol 36% v/v, Ethanol 10% v/v",51.0 mg/mL
same,Saturated Solubility,"[2]; Ref. FD4068 17C, Propylene glycol 38% v/v, Ethanol 10% v/v",52.2 mg/mL
same,Saturated Solubility,"[2]; Ref. FD4068 17D, Propylene glycol 40% v/v, Ethanol 10% v/v (no surfactant)",53.8 mg/mL
same,Saturated Solubility,"[2]; Ref. FD4068 26A, 5% w/v Polysorbate 80, 40% v/v propylene glycol, 10% v/v ethanol",49.0 mg/mL
same,Saturated Solubility,"[2]; Ref. FD4068 26B, 5% w/v Polysorbate 20, 40% v/v propylene glycol, 10% v/v ethanol",46.5 mg/mL
same,Saturated Solubility,"[2]; Ref. FD4068 26C, 5% w/v Paloxamer 188, 40% v/v propylene glycol, 10% v/v ethanol",45.1 mg/mL
same,Saturated Solubility,"[2]; Ref. FD4068 27A, 5% w/v Cremophor RH40, 40% v/v propylene glycol, 10% v/v ethanol",47.1 mg/mL
same,Saturated Solubility,[2]; [3],15.3 mg/mL
same,pH of CN-Cbl Solution,[2]; [3],2.89
same,Saturated Solubility,[2]; [4],15.0 mg/mL
same,pH of CN-Cbl Solution,[2]; [4],4.83
same,Saturated Solubility,[2]; [5],13.6 mg/mL
same,pH of CN-Cbl Solution,[2]; [5],7.02
same,Saturated Solubility,[2]; [6],17.5 mg/mL
same,pH of CN-Cbl Solution,[2]; [6],8.80
same,pH of CN-Cbl Solution,"[2]; Ref. FD4068 33, 0.1 M Choline, 40% v/v propylene glycol, 10% v/v ethanol",12.61
same,Saturated Solubility,"[2]; Ref. FD4068 33, Choline 0.100 M (12.12 mg/ml), 40% v/v propylene glycol, 10% v/v ethanol",91.8 mg/ml and 0.068 M
same,pH of CN-Cbl Solultion,"[2]; Ref. FD4068 33, Choline 0.100 M, 40% v/v propylene glycol, 10% v/v ethanol, Initial pH 12.68",12.6 and 12.61
same,pH of CN-Cbl Solution,"[2]; Ref. FD4068 34, 0.1 M Triethylamine, 40% v/v propylene glycol, 10% v/v ethanol",10.97
same,Saturated Solubility,"[2]; Ref. FD4068 38A, 10% v/v Ethanol, 40% v/v Propylene Glycol, 0.1 M Choline, pH adjusted with hydrochloric acid, Initial pH 8.58",60.3 mg/mL
same,pH of CN-Cbl Solution,"[2]; Ref. FD4068 38A, 10% v/v Ethanol, 40% v/v Propylene Glycol, 0.1 M Choline, Initial pH 8.58",8.10
same,Saturated Solubility,"[2]; Ref. FD4068 38B, 10% v/v Ethanol, 40% v/v Propylene Glycol, 0.1 M Choline, pH adjusted with hydrochloric acid, Initial pH 7.85",59.4 mg/mL
same,pH of CN-Cbl Solution,"[2]; Ref. FD4068 38B, 10% v/v Ethanol, 40% v/v Propylene Glycol, 0.1 M Choline, Initial pH 7.85",7.70
same,Saturated Solubility,"[2]; Ref. FD4068 39B, 10% v/v Ethanol, 40% v/v Propylene Glycol, 0.1 M Choline, pH adjusted with hydrochloric acid, Initial pH 8.99",63.1 mg/mL
same,pH of CN-Cbl Solution,"[2]; Ref. FD4068 39B, 10% v/v Ethanol, 40% v/v Propylene Glycol, 0.1 M Choline, Initial pH 8.99",8.01
same,Saturated Solubility,"[2]; Ref. FD4068 39C, 10% v/v Ethanol, 40% v/v Propylene Glycol, 0.1 M Choline, pH adjusted with hydrochloric acid, Initial pH 7.43",63 mg/mL
same,pH of CN-Cbl Solution,"[2]; Ref. FD4068 39C, 10% v/v Ethanol, 40% v/v Propylene Glycol, 0.1 M Choline, Initial pH 7.43",8.00
same,Saturated Solubility,"[2]; Ref. FD4068 42A, Choline 0.055 M (6.71 mg/ml), 40% v/v propylene glycol, 10% v/v ethanol",80.8 mg/ml and 0.060 M
same,pH of CN-Cbl Solultion,"[2]; Ref. FD4068 42A, Choline 0.055 M, 40% v/v propylene glycol, 10% v/v ethanol, Initial pH 12.49",12.44
same,Saturated Solubility,"[2]; Ref. FD4068 42B, Choline 0.068 M (8.23 mg/ml), 40% v/v propylene glycol, 10% v/v ethanol",82.8 mg/ml and 0.061 M
same,pH of CN-Cbl Solultion,"[2]; Ref. FD4068 42B, Choline 0.068 M, 40% v/v propylene glycol, 10% v/v ethanol, Initial pH 12.63",12.53
same,Saturated Solubility,"[2]; Ref. FD4068 43A, Choline 0.111 M (13.41 mg/ml), 40% v/v propylene glycol, 10% v/v ethanol",92.1 mg/ml and 0.068 M
same,pH of CN-Cbl Solultion,"[2]; Ref. FD4068 43A, Choline 0.111 M, 40% v/v propylene glycol, 10% v/v ethanol, Initial pH 12.80",12.76
same,pH of CN-Cbl Solution,"[2]; Ref. FD4068 89B, 0.15 ml 2m HCl + 0.025M pH 5.6 citrate buffer, Choline 0.044 M",6.97
same,Saturated Solubility,"[2]; Ref. FD4068 89B, 0.15 ml 2m HCl + 0.025M pH 5.6 citrate buffer, Choline 0.044 M (5.34 mg/ml), Initial pH 7.03",52.6 mg/mL
same,pH of CN-Cbl Solution,"[2]; Ref. FD4068 96, 0.2 ml 2M HCl + 0.025M pH 7.0 phosphate buffer, Choline 0.044 M",7.96
same,Saturated Solubility,"[2]; Ref. FD4068 96, 0.2 ml 2M HCl + 0.025M pH 7.0 phosphate buffer, Choline 0.044 M (5.34 mg/ml), Initial pH 8.10",54.5 mg/mL
same,pH of CN-Cbl Solution,"[2]; Ref. FD4068 102A, 0.4m 2M HCl + 0.025M pH 6.8 phosphate buffer, Choline 0.088 M",7.97
same,Saturated Solubility,"[2]; Ref. FD4068 102A, 0.4m 2M HCl + 0.025M pH 6.8 phosphate buffer, Choline 0.088 M (10.67 mg/ml), Initial pH 8.12",58.5 mg/mL
same,pH of CN-Cbl Solution,"[2]; Ref. FD4068 103, no buffer, pH adjusted with HCl, Choline 0.044 M",7.21
same,Saturated Solubility,"[2]; Ref. FD4068 103, no buffer, pH adjusted with HCl, Choline 0.044 M (5.34 mg/ml), Initial pH 8.05",54.6 mg/mL
same,Saturated Solubility,"[2]; Ref. FD4068 107A, Choline chloride 0.044 M (6.14 mg/ml, Molar Ratio 1:1), 40% v/v propylene glycol, 10% v/v ethanol, pH adjusted to 8 with sodium hydroxide",53.2 mg/mL
same,pH of CN-Cbl Solution,"[2]; Ref. FD4068 107A, Choline chloride 0.044 M, 40% v/v propylene glycol, 10% v/v ethanol",6.36
same,Saturated Solubility,"[2]; Ref. FD4068 108B, Choline chloride 0.221 M (30.86 mg/ml, Molar Ratio 1:5), 40% v/v propylene glycol, 10% v/v ethanol, pH adjusted to 8 with sodium hydroxide",60.1 mg/mL
same,pH of CN-Cbl Solution,"[2]; Ref. FD4068 108B, Choline chloride 0.221 M, 40% v/v propylene glycol, 10% v/v ethanol",6.51
same,Saturated Solubility,"[2]; Ref. FD4068 109A, Choline chloride 0.133 M (18.57 mg/ml, Molar Ratio 1:3), 40% v/v propylene glycol, 10% v/v ethanol, pH adjusted to 8 with sodium hydroxide",57.4 mg/mL
same,pH of CN-Cbl Solution,"[2]; Ref. FD4068 109A, Choline chloride 0.133 M, 40% v/v propylene glycol, 10% v/v ethanol",6.63
same,Saturated Solubility,"[2]; Ref. FD4068 110A, Choline chloride 0.443 M (61.81 mg/ml, Molar Ratio 1:10), 40% v/v propylene glycol, 10% v/v ethanol, pH adjusted to 8 with sodium hydroxide",66.6 mg/mL
same,pH of CN-Cbl Solution,"[2]; Ref. FD4068 110A, Choline chloride 0.443 M, 40% v/v propylene glycol, 10% v/v ethanol",6.40
same,Saturated Solubility,"[2]; Ref. FD4068 112A, Choline chloride 0.443 M (61.81 mg/ml, 1:10), 40% v/v propylene glycol, 10% v/v ethanol, 0.025 M phosphate buffer pH 8",66.8 mg/mL
same,pH of CN-Cbl Solution,"[2]; Ref. FD4068 112A, Choline chloride 0.443 M, 40% v/v propylene glycol, 10% v/v ethanol, 0.025 M phosphate buffer",7.93
same,Saturated Solubility,"[2]; Ref. FD4068 112B, Choline chloride 0.184 M (25.75 mg/ml, 1:5), 40% v/v propylene glycol, 10% v/v ethanol, 0.025 M phosphate buffer pH 8",62.7 mg/mL
same,pH of CN-Cbl Solution,"[2]; Ref. FD4068 112B, Choline chloride 0.184 M, 40% v/v propylene glycol, 10% v/v ethanol, 0.025 M phosphate buffer",7.97
same,Saturated Solubility,"[2]; Water, Equilibrium Time 16 hours",15.25 mg/mL
same,Saturated Solubility,"[2]; Water, Equilibrium Time 24 hours",15.47 mg/mL
same,Saturated Solubility,"[2]; Water, Equilibrium Time 40 hours",15.27 mg/mL
same,"Saturated Solubility, mean","[2]; Water, mean of equilibrium times 16, 24, 40 hours",15.33 mg/mL
same,pH of CN-Cbl Solution,[2]; saturated in 0.1 M Choline (12.12 mg/ml),12.5 and 12.49
same,pH of CN-Cbl Solution,[2]; saturated in 0.1 M Diethanolamine (10.51 mg/ml),10.15
same,pH of CN-Cbl Solution,[2]; saturated in 0.1 M L-arginine (17.42 mg/ml),10.22
same,pH of CN-Cbl Solution,[2]; saturated in 0.1 M L-lysine (16.42 mg/ml),9.59
same,pH of CN-Cbl Solution,[2]; saturated in 0.1 M Meglumine (19.52 mg/ml),10.70
same,pH of CN-Cbl Solution,[2]; saturated in 0.1 M Triethanolamine (14.92 mg/ml),9.26
same,pH of CN-Cbl Solution,[2]; saturated in 0.1 M Triethylamine (10.12 mg/ml),11.42

# From patent US20080039422A1, “Vitamin B12-Containing Compositions and Methods of Use” (Transition Therapeutics Inc., priority 2004, published 2008)
